Biological target: T1, γ-secretase (Homo sapiens, UniProt P49768)
T1 construct: uses a HEK293 membrane fraction as a source of γ-secretase; endogenous in cells; host or cells: HEK293 (microsomal membrane fraction, solubilised in 0.25% CHAPSO)
Test: in vitro γ-secretase assay (HEK293 membrane fraction, recombinant APP substrate, Abeta ELISA)
Assay type: biochemical
Conditions: γ-secretase inhibition
Source text: Description of γ-Secretase Assay
The activity of test compounds can be evaluated in assays which measure the proteolytic cleavage of suitable substrates by γ-secretase activity. These can be cellular assays where e.g., a substrate of the γ-secretase is fused in its cytoplasmic domain to a transcription factor. Cells are transfected with this fusion gene and a reporter gene, e.g., firefly luciferase, which expression is enhanced by the transcription factor. Cleavage of the fused substrate by γ-secretase will lead to expression of the reporter gene which can be monitored in appropriate assays. The γ-secretase activity can also be determined in cell-free in vitro asays where e.g., a cell lysate containing the γ-secretase complex is incubated with a suitable APP-derived substrate which is cleaved to the Abeta peptides. The amount of produced peptides can be determined with specific ELISA assays. Cell lines of neuronal origin secrete Abeta peptides which can be measured with the specific ELISA assay. Treatment with compounds which inhibit γ-secretase leads to a reduction of secreted Abeta thus providing a measure of inhibition.
The in vitro assay of γ-secretase activity uses a HEK293 membrane fraction as a source of γ-secretase and a recombinant APP substrate. Latter consist of the C-terminal 100 amino acids of human APP fused to a 6× Histidin tail for purification which is expressed in E. coli in a regulatable expression vector, e.g. pEt15. This recombinant protein corresponds to the truncated APP fragment which results after […] of the extracellular domain and which constitutes the γ-secretase substrate. […] Hek293 cells are mechanically disrupted and the microsomal fraction is isolated by differential centrifugation.

| IC50 (table head prints none) [nM] | IC50 [nM] | SMILES |
| --- | --- | --- |
| 60 | – | CC1(C)CCNC(=O)[C@H](N(Cc2ccc(-c3ccno3)cc2)S(=O)(=O)c2ccc(Cl)cc2)C1 [Example 191, 4-Chloro-N-((R)-5,5-dimethyl-2-oxo-azepan-3-yl)-N-(4-isoxazol-5-yl-benzyl)-benzenesulfonamide] |
| 40 | – | COc1ccc(CN([C@@H]2CC(C)(C)CCNC2=O)S(=O)(=O)c2ccc(Cl)cc2)c(F)c1 [Example 192, 4-Chloro-N-((R)-5,5-dimethyl-2-oxo-azepan-3-yl)-N-(2-fluoro-4-methoxy-benzyl)-benzenesulfonamide] |
| 20 | – | CC1(C)CCNC(=O)[C@H](N(Cc2ccc(CO)cc2F)S(=O)(=O)c2ccc(Cl)cc2)C1 [Example 193, 4-Chloro-N-((R)-5,5-dimethyl-2-oxo-azepan-3-yl)-N-(2-fluoro-4-hydroxymethyl-benzyl)-benzenesulfonamide] |
| 130 | – | O=C(O)CCc1ccc(CN(C2CC(C(F)(F)F)CCNC2=O)S(=O)(=O)c2ccc(Cl)cc2)cc1 (centres unmarked) [Example 194, 3-(4-{[(4-Chloro-benzenesulfonyl)-(2-oxo-5-trifluoromethyl-azepan-3-yl)-amino]-methyl}-phenyl)-propionic acid] |
| 30 | – | O=C(O)c1ccc(CN(C2CC(C(F)(F)F)CCNC2=O)S(=O)(=O)c2ccc(Cl)cc2)cc1 (centres unmarked) [Example 195, 4-{[(4-Chloro-benzenesulfonyl)-(2-oxo-5-trifluoromethyl-azepan-3-yl)-amino]-methyl}-benzoic acid] |
| 190 | – | CN(C)NC(=O)c1ccc(CN(C2CC(C(F)(F)F)CCNC2=O)S(=O)(=O)c2ccc(Cl)cc2)cc1 (centres unmarked) [Example 196, 4-Chloro-N-[4-(N′,N′-dimethyl-hydrazinocarbonyl)-benzyl]-N-(2-oxo-5-trifluoromethyl-azepan-3-yl)-benzenesulfonamide] |
| 20 | – | COC(=O)c1ccc(CN(C2CC(C(F)(F)F)CCNC2=O)S(=O)(=O)c2ccc(Cl)cc2)c(F)c1 (centres unmarked) [Example 197, 4-{[(4-Chloro-benzenesulfonyl)-(2-oxo-5-trifluoromethyl-azepan-3-yl)-amino]-methyl}-3-fluoro-benzoic acid methyl ester] |
| – | 290 | COc1ccc(CN(C2CC(C(F)(F)F)CCNC2=O)S(=O)(=O)c2ccc(Cl)cc2)c(F)c1 (centres unmarked) [Example 198, 4-Chloro-N-(2-fluoro-4-methoxy-benzyl)-N-(2-oxo-5-trifluoromethyl-azepan-3-yl)-benzenesulfonamide] |
| – | 20 | O=C(O)c1ccc(CN(C2CC(C(F)(F)F)CCNC2=O)S(=O)(=O)c2ccc(Cl)cc2)c(F)c1 (centres unmarked) [Example 199, 4-{[(4-Chloro-benzenesulfonyl)-(2-oxo-5-trifluoromethyl-azepan-3-yl)-amino]-methyl}-3-fluoro-benzoic acid] |
| – | 20 | O=C(O)CCc1ccc(CN([C@@H]2CCCCNC2=O)S(=O)(=O)c2ccc(Cl)cc2)cc1 [Example 201, 3-(4-{[(4-Chloro-benzenesulfonyl)-((R)-2-oxo-azepan-3-yl)-amino]-methyl}-phenyl)-propionic acid] |
| – | 220 | O=C1NCCCC[C@H]1N(Cc1ccc(-c2ccno2)cc1)S(=O)(=O)c1ccc(Cl)cc1 [Example 208, 4-Chloro-N-(4-isoxazol-5-yl-benzyl)-N-((R)-2-oxo-azepan-3-yl)-benzenesulfonamide] |
| – | 50 | COc1ccc(CN([C@@H]2CCCCNC2=O)S(=O)(=O)c2ccc(Cl)cc2)c(F)c1F [Example 211, 4-Chloro-N-(2,3-difluoro-4-methoxy-benzyl)-N-((R)-2-oxo-azepan-3-yl)-benzenesulfonamide] |
| – | 210 | CC(C)(CC(=O)O)c1ccc(CN([C@@H]2CCCCNC2=O)S(=O)(=O)c2ccc(Cl)cc2)cc1 [Example 218, 3-(4-{[(4-Chloro-benzenesulfonyl)-((R)-2-oxo-azepan-3-yl)-amino]-methyl}-phenyl)-3-methyl-butyric acid] |
| – | 230 | CC(C)(Cc1ccc(CN([C@@H]2CCCCNC2=O)S(=O)(=O)c2ccc(Cl)cc2)cc1)C(=O)O [Example 219, 3-(4-{[(4-Chloro-benzenesulfonyl)-((R)-2-oxo-azepan-3-yl)-amino]-methyl}-phenyl)-2,2-dimethyl-propionic acid] |
